Measured values from patent US12673961B2 (Agios Pharmaceuticals, Inc., priority 2022, dated 2026).

Molecular target: T1, human PAH with the R408W mutation (Homo sapiens, UniProt P00439, R408W)
T1 construct: expressed in transfected cells
T1 sequence (P00439 1-452 R408W): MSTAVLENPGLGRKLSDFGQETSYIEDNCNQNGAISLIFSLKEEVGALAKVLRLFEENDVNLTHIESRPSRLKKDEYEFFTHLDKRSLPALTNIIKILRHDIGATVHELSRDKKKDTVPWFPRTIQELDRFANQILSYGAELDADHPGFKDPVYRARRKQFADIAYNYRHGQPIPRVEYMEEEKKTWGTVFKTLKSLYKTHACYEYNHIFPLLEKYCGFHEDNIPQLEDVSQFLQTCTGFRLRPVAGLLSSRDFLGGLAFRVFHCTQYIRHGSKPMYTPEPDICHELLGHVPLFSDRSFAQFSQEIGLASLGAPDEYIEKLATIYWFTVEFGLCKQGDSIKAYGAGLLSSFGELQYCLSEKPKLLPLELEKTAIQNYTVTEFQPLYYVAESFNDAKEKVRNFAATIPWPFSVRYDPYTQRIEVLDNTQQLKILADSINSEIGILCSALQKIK
Experiment: Cell Based Phenylalanine Flux Assay;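 further: Ten-point dose curve from 2-fold serial dilutions, run in duplicate at 0.5% DMSO final, tracer step used 20 µM sepiapterin and 800 µM labeled phenylalanine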
Conditions: A375 cells expressing human R408W PAH; 24 hrs with compound, then sepiapterin and 13C9,15N-Phenylalanine for 4 hours; 13C-Tyrosine by LC-MS; average where tested multiple times; read-out: AC50

AC50	Compound
1000 to 5000 nM	O=C(c1nnc(-c2ccn(C(F)(F)F)n2)o1)N1CCc2[nH]cnc2[C@@H]1c1cc2c(F)cccn2n1 [Example 1483, (R)-(4-(4-fluoropyrazolo [1,5-a]pyridin-2-yl)-6,7-dihydro-1H-imidazo[4,5-c]pyridin-5(4H)-yl)(5-(1-(trifluoromethyl)-1H-pyrazol-3-yl)-1,3,4-oxadiazol-2-yl)methanone]
< 500 nM	CC(C)c1nnc(C(=O)N2CCc3[nH]cnc3[C@H]2c2cc3c(Cl)cccn3n2)o1 [Example 1484, (S)-(4-(4-chloropyrazolo [1,5-a]pyridin-2-yl)-6,7-dihydro-1H-imidazo[4,5-c]pyridin-5(4H)-yl)(5-isopropyl-1,3,4-oxadiazol-2-yl)methanone]
500 to 1000 nM	O=C(c1nnc(-c2cnn(C(F)(F)F)c2)o1)N1CCc2[nH]cnc2[C@H]1c1cc2cccc(C(F)F)n2n1 [Example 1502, (S)-(4-(7-(difluoromethyl)pyrazolo[1,5-a]pyridin-2-yl)-6,7-dihydro-1H-imidazo [4,5-c]pyridin-5(4H)-yl)(5-(1-(trifluoromethyl)-1H-pyrazol-4-yl)-1,3,4-oxadiazol-2-yl)methanone]
> 5000 nM	O=C(c1nnc(-c2cnn(C(F)(F)F)c2)o1)N1CCc2[nH]cnc2[C@@H]1c1cc2c(Cl)cccn2n1 [Example 1505]
< 500 nM	O=C(c1nnc(-c2ccn(C(F)(F)F)n2)o1)N1CCc2[nH]cnc2[C@H]1c1cc2cccc(Cl)n2n1 [Example 1508, (S)-(4-(7-chloropyrazolo [1,5-a]pyridin-2-yl)-6,7-dihydro-1H-imidazo[4,5-c]pyridin-5(4H)-yl)(5-(1-(trifluoromethyl)-1H-pyrazol-3-yl)-1,3,4-oxadiazol-2-yl)methanone]
> 5000 nM	O=C(c1nnc(-c2ccn(C(F)(F)F)n2)o1)N1CCc2[nH]cnc2[C@@H]1c1cc2cccc(Cl)n2n1 [Example 1509, (R)-(4-(7-chloropyrazolo [1,5-a]pyridin-2-yl)-6,7-dihydro-1H-imidazo[4,5-c]pyridin-5(4H)-yl)(5-(1-(trifluoromethyl)-1H-pyrazol-3-yl)-1,3,4-oxadiazol-2-yl)methanone]
500 to 1000 nM	Cc1cccc2cc([C@@H]3c4nc[nH]c4CCN3C(=O)c3nnc(-c4ccn(C(F)(F)F)n4)o3)nn12 [Example 1510, (S)-(4-(7-methylpyrazolo [1,5-a]pyridin-2-yl)-6,7-dihydro-1H-imidazo[4,5-c]pyridin-5(4H)-yl)(5-(1-(trifluoromethyl)-1H-pyrazol-3-yl)-1,3,4-oxadiazol-2-yl)methanone]
1000 to 5000 nM	Cc1cccc2cc([C@H]3c4nc[nH]c4CCN3C(=O)c3nnc(-c4ccn(C(F)(F)F)n4)o3)nn12 [Example 1511, (R)-(4-(7-methylpyrazolo [1,5-a]pyridin-2-yl)-6,7-dihydro-1H-imidazo[4,5-c]pyridin-5(4H)-yl)(5-(1-(trifluoromethyl)-1H-pyrazol-3-yl)-1,3,4-oxadiazol-2-yl)methanone]
< 500 nM	O=C(c1nnc(C2CCC2)o1)N1CCc2[nH]cnc2[C@H]1c1cc2c(C(F)(F)F)cccn2n1 [Example 1519, (S)-(5-cyclobutyl-1,3,4-oxadiazol-2-yl)(4-(4-(trifluoromethyl)pyrazolo [1,5-a]pyridin-2-yl)-6,7-dihydro-1H-imidazo[4,5-c]pyridin-5(4H)-yl)methanone]
< 500 nM	O=C(c1nnc(C2CCC2)o1)N1CCc2[nH]cnc2[C@H]1c1cc2c(C(F)F)cccn2n1 [Example 1520, (S)-(5-cyclobutyl-1,3,4-oxadiazol-2-yl)(4-(4-(difluoromethyl)pyrazolo [1,5-a]pyridin-2-yl)-6,7-dihydro-1H-imidazo[4,5-c]pyridin-5(4H)-yl)methanone]
500 to 1000 nM	Cn1nccc1-c1nnc(C(=O)N2CCc3[nH]cnc3[C@H]2c2cc3cccc(F)n3n2)o1 [Example 1526, (S)-(4-(7-fluoropyrazolo[1,5-a]pyridin-2-yl)-6,7-dihydro-1H-imidazo[4,5-c]pyridin-5(4H)-yl)(5-(1-methyl-1H-pyrazol-5-yl)-1,3,4-oxadiazol-2-yl)methanone]
> 5000 nM	Cn1nccc1-c1nnc(C(=O)N2CCc3[nH]cnc3[C@@H]2c2cc3c(C(F)F)cccn3n2)o1 [Example 1533, (R)-(4-(4-(difluoromethyl)pyrazolo[1,5-a]pyridin-2-yl)-6,7-dihydro-1H-imidazo [4,5-c]pyridin-5(4H)-yl)(5-(1-methyl-1H-pyrazol-5-yl)-1,3,4-oxadiazol-2-yl)methanone]
> 5000 nM	O=C(c1nnc(-c2cnn(C(F)(F)F)c2)o1)N1CCc2[nH]cnc2[C@@H]1c1cc2c(C(F)(F)F)cccn2n1 [Example 1539, (R)-(5-(1-(trifluoromethyl)-1H-pyrazol-4-yl)-1,3,4-oxadiazol-2-yl)(4-(4-(trifluoromethyl)pyrazolo[1,5-a]pyridin-2-yl)-6,7-dihydro-1H-imidazo[4,5-c]pyridin-5(4H)-yl)methanone]
1000 to 5000 nM	O=C(c1nnc(-c2cnn(C(F)(F)F)c2)o1)N1CCc2[nH]cnc2[C@@H]1c1cc2c(F)cccn2n1 [Example 1541, (R)-(4-(4-fluoropyrazolo [1,5-a]pyridin-2-yl)-6,7-dihydro-1H-imidazo[4,5-c]pyridin-5(4H)-yl)(5-(1-(trifluoromethyl)-1H-pyrazol-4-yl)-1,3,4-oxadiazol-2-yl)methanone]
1000 to 5000 nM	O=C(c1nnc(C2CCC2)o1)N1CCc2[nH]cnc2[C@@H]1c1cc2c(F)cccn2n1 [Example 1558, (R)-(5-cyclobutyl-1,3,4-oxadiazol-2-yl)(4-(4-fluoropyrazolo[1,5-a]pyridin-2-yl)-6,7-dihydro-1H-imidazo[4,5-c]pyridin-5(4H)-yl)methanone]

Further lines, the compound ahead of its results:

Compound	AC50
CC(C)c1nnc(C(=O)N2CCc3[nH]cnc3[C@@H]2c2cc3cccc(Cl)n3n2)o1 [Example 1489, (R)-(4-(7-chloropyrazolo [1,5-a]pyridin-2-yl)-6,7-dihydro-1H-imidazo[4,5-c]pyridin-5(4H)-yl)(5-isopropyl-1,3,4-oxadiazol-2-yl)methanone]	1000 to 5000 nM
Cc1cccc2cc([C@@H]3c4nc[nH]c4CCN3C(=O)c3nnc(C(C)C)o3)nn12 [Example 1490, (S)-(5-isopropyl-1,3,4-oxadiazol-2-yl)(4-(7-methylpyrazolo[1,5-a]pyridin-2-yl)-6,7-dihydro-1H-imidazo[4,5-c]pyridin-5(4H)-yl)methanone]	500 to 1000 nM
O=C(c1nnc(C2CCC2)o1)N1CCc2[nH]cnc2[C@@H]1c1cc2ccccn2n1 [Example 1515, (R)-(5-cyclobutyl-1,3,4-oxadiazol-2-yl)(4-(pyrazolo[1,5-a]pyridin-2-yl)-6,7-dihydro-1H-imidazo[4,5-c]pyridin-5(4H)-yl)methanone]	> 5000 nM
O=C(c1nnc(C2CCC2)o1)N1CCc2[nH]cnc2[C@H]1c1cc2c(Cl)cccn2n1 [Example 1517, (S)-(4-(4-chloropyrazolo [1,5-a]pyridin-2-yl)-6,7-dihydro-1H-imidazo[4,5-c]pyridin-5(4H)-yl)(5-cyclobutyl-1,3,4-oxadiazol-2-yl)methanone]	< 500 nM
Cc1cnn(C)c1-c1nnc(C(=O)N2CCc3[nH]cnc3[C@@H]2c2cc3cccc(F)n3n2)o1 [Example 1529, (R)-(5-(1,4-dimethyl-1H-pyrazol-5-yl)-1,3,4-oxadiazol-2-yl)(4-(7-fluoropyrazolo [1,5-a]pyridin-2-yl)-6,7-dihydro-1H-imidazo[4,5-c]pyridin-5(4H)-yl)methanone]	1000 to 5000 nM
O=C(c1nnc(-c2cnccn2)o1)N1CCc2[nH]cnc2[C@H]1c1cc2cccc(C(F)F)n2n1 [Example 1535, (S)-(4-(7-(difluoromethyl)pyrazolo[1,5-a]pyridin-2-yl)-6,7-dihydro-1H-imidazo[4,5-c]pyridin-5(4H)-yl)(5-(pyrazin-2-yl)-1,3,4-oxadiazol-2-yl)methanone]	500 to 1000 nM
Cc1cc(-c2nnc(C(=O)N3CCc4[nH]cnc4[C@@H]3c3cc4cccc(C(F)F)n4n3)o2)nn1C [Example 1536, (R)-(4-(7-(difluoromethyl)pyrazolo[1,5-a]pyridin-2-yl)-6,7-dihydro-1H-imidazo[4,5-c]pyridin-5(4H)-yl)(5-(1,5-dimethyl-1H-pyrazol-3-yl)-1,3,4-oxadiazol-2-yl)methanone]	> 5000 nM
O=C(c1cnn2cc(-c3ccccn3)ccc12)N1CCc2[nH]cnc2[C@H]1c1cc2c(C(F)(F)F)cccn2n1 [Example 1550, (S)-(6-(pyridin-2-yl)pyrazolo [1,5-a]pyridin-3-yl)(4-(4-(trifluoromethyl)pyrazolo [1,5-a]pyridin-2-yl)-6,7-dihydro-1H-imidazo[4,5-c]pyridin-5(4H)-yl)methanone]	< 500 nM
Cn1cc(-c2ccc3c(C(=O)N4CCc5[nH]cnc5[C@H]4c4cc5c(C(F)(F)F)cccn5n4)cnn3c2)cn1 [Example 1552, (S)-(6-(1-methyl-1H-pyrazol-4-yl)pyrazolo[1,5-a]pyridin-3-yl)(4-(4-(trifluoromethyl)pyrazolo[1,5-a]pyridin-2-yl)-6,7-dihydro-1H-imidazo[4,5-c]pyridin-5(4H)-yl)methanone]	< 500 nM
CC(C)c1nnc(C(=O)N2CCc3[nH]cnc3[C@@H]2c2cc3cccc(F)n3n2)o1 [Example 1554]	> 5000 nM
Cc1cc(-c2nnc(C(=O)N3CCc4[nH]cnc4[C@H]3c3cc4cccc(F)n4n3)o2)nn1C [Example 1565, (S)-(5-(1,5-dimethyl-1H-pyrazol-3-yl)-1,3,4-oxadiazol-2-yl)(4-(7-fluoropyrazolo[1,5-a]pyridin-2-yl)-6,7-dihydro-1H-imidazo[4,5-c]pyridin-5(4H)-yl)methanone]	< 500 nM
